Measurements from US20220062166A1, “Self-Gelling Solutions for Administration of Therapeutics to the Inner Ear” (Spiral Therapeutics, Inc., priority 2019, published 2022).

Key:
caspase 3 = molecular target: T1, caspase 3 (Homo sapiens, UniProt P42574); experiment: Caspase 3 activation assay with recombinant proteins; assay type: biochemical; conditions: in %
T1 sequence (P42574 29-277): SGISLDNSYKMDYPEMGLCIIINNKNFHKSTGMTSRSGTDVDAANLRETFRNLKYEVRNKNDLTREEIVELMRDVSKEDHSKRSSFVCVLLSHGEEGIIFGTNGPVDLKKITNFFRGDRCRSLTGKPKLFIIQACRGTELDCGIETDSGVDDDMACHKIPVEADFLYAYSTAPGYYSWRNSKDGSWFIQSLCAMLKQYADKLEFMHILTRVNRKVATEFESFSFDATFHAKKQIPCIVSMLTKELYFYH
Experimental: The specificity of LPT99 was tested in vitro on Apaf1, caspase 3, and caspase 9 (proteins from the apoptotic cascade), and a broad panel of potential pharmacological targets.
LPT99 inhibited the formation of the apoptosome complex composed by recombinant Apaf1, cyt c, deoxyadenosine triphosphate (dATP), and caspase 9. This activity was measured as inhibition of caspase 3 activation. […] To evaluate the specificity of the inhibition, an assay of caspase 3 and 9 activation was set up with recombinant proteins. The inhibitions of caspase 3 and 9 were 7.6±14.7 and 5.3±3.5, respectively, for LPT99.

HEI-OC1 cells = experiment: Release of mitochondrial cyt c in HEI-OC1 cells with CisPt (flow cytometry); assay type: cell-based
Experimental: Flow cytometry was also used to characterize the effect of LPT99 in the release of mitochondrial cyt c in HEI-OC1 cells in vitro with CisPt prevention. Results
(§1) The effect of LPT99 on proliferation of non-apoptotic cells was studied. A549 cells were cultured in the presence of LPT99 for up to 6 days; the cell number was monitored by flow cytometry, and doubling time was calculated.

A549 cells = experiment: Proliferation of non-apoptotic A549 cells (flow cytometry, doubling time); assay type: cell-based; conditions: A549 cells cultured up to 6 days; reversible on removal
Experimental: as §1

[1] = system: panel of receptors (44 GPCR and 4 non-GPCR), 4 ion channels, and 3 transporters; experiment: Off-target selectivity panel; assay type: binding; conditions: 10 μM
Experimental: To identify off-target activities of LPT99, its selectivity against a panel of receptors (44 G-protein-coupled receptors [GPCR] and 4 non-GPCR), 4 ion channels, and 3 transporters were analyzed. The cell line, HEI-OC1 (house ear institute organ of Corti 1), which expresses several characteristic markers of the organ of Corti sensory cells (Kalinec, et al. , Audiol. Neurootol. 2003, 8(4), 177-89), was used to evaluate the efficacy of LPT99 in preventing apoptosis due to […]. Cells were pre-incubated with LPT99, followed by […] for 24 hours.
For 14 of the tested targets—adenosine receptor 3 (A3); cholecystokinin: cholecystokinin receptor 1 (CCK1); melatonin receptor (MT1); neurokinin (NK2 and NK3); opioid (kOP and mOP); serotonin receptors (5HT-1A, 5HT-2A, 5HT−2B and 5HT−7); and vasopressin (V1A; Na+channel site 2 and Cl-GABA-gated channel)—the LPT99 affinity was >50%. At 1 μM, the inhibition of 13 of these targets was <50%, indicating a very low affinity with LPT99.

[2] = system: noise-induced ABR threshold shift; experiment: Noise trauma ABR threshold study; assay type: in vivo; conditions: at 10 and 21 days; TRAUMA+LPT99 group
[3] = Plasma concentrations after TT administration of LPT99-CD in female Wistar rats; assay type: in vivo, rat
hERG = molecular target: T2, hERG (Homo sapiens, UniProt Q12809); experiment: hERG automated patch clamp assay in hERG-CHO cells; assay type: cell-based; conditions: detection limit 3.2 nM
T2 construct: expressed in transfected cells; host or cells: CHO
T2 sequence (Q12809 whole entry): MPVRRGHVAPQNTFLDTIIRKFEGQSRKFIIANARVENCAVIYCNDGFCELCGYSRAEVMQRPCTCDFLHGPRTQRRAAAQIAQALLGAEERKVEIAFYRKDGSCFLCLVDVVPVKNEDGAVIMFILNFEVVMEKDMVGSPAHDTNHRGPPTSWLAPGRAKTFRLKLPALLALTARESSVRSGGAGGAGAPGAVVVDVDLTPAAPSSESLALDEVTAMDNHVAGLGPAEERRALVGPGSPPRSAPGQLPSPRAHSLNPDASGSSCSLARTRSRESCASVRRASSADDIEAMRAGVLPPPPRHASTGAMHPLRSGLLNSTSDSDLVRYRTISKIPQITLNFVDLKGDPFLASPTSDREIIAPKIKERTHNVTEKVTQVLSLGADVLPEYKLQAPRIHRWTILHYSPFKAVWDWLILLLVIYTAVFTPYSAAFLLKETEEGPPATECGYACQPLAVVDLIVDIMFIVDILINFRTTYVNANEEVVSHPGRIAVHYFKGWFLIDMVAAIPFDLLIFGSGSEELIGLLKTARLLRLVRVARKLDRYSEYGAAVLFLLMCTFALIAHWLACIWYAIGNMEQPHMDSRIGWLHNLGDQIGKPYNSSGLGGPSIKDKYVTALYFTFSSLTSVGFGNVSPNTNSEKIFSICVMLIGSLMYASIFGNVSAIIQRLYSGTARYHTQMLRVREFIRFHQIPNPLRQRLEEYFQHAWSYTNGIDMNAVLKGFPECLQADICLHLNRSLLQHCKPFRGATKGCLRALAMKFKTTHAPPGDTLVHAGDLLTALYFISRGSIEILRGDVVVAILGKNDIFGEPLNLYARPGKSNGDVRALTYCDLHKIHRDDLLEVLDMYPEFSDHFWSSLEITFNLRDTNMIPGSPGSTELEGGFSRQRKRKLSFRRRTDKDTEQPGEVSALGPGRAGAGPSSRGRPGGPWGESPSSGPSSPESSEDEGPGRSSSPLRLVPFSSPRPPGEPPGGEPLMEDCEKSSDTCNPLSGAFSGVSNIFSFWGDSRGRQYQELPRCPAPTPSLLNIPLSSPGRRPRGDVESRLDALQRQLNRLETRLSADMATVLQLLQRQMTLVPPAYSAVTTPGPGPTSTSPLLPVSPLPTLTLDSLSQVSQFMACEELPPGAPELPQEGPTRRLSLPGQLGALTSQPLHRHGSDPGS
Source text: The potential cardiotoxicity of LPT99 was investigated in an assay using the hERG-CHO cells transfected with the automated patch clamp assay.

[4] = GLP acute systemic toxicity study, single IP dose, Sprague-Dawley rats; assay type: in vivo, rat
Experimental: A GLP acute systemic toxicity study was conducted with LPT99 administered via IP injection in Sprague-Dawley rats. The acute systemic toxicity study was preceded by a non-GLP maximum tolerated dose (MTD) toxicity study, via the same administration and test system, which determined the MTD of LTP99 to be 1000 mg/kg.
(§2) LPT99 was suspended in vehicle [0.5% w/v methylcellulose and 0.1% v/v TWEEN® 80 in Milli-Q water] and administered intraperitoneally to Sprague-Dawley rats as a single dose at the doses of 100 (low—G2/G2TK), 300 (mid—G3/G3TK), and 750 (high—G4/G4TK) mg/kg body weight. The rats in vehicle control groups (G1/G1TK) received the vehicle alone. The dose volume administered was at an equivolume of 10 mL/kg body weight for all groups.
(§3) The main toxicity groups consist of 15 rats/sex/group in G1 and G4 groups and 10 rats/sex/group in G2 and G3 groups. The toxicokinetic groups consisted of 6 males and 6 female rats each for the prevention groups, whereas the vehicle control group had 3 male and 3 female rats.

[5] = Toxicokinetic assessment in the acute IP toxicity study; assay type: in vivo, rat; conditions: all tested dose levels
Experimental: as §2, §3
Gender related differences were observed.

[6] = Metabolic profile and stability in microsomal and S9 hepatic fractions; assay type: in vitro ADME, human, dog, rabbit, rat, and mouse
Source text: The metabolic profile and stability of LPT99 was characterized in human, dog, rabbit, rat, and mouse microsomal and S9 fractions, and in human cytosolic fractions.

[7] = GLP auditory safety study in rats after single TT administration; conditions: rat, in vivo
Experimental: The study consisted of 10 groups of rats: 6 groups for toxicology (Groups 1 to 6, 20 males and 20 females per group), and 4 groups for toxicokinetics (Groups 7 to 10, 6 males and 6 females per group).
All animals were assessed weekly for body weights and qualitative food consumption. In addition, otoscopic evaluation of the dosing sites (tympanic membrane, Groups 1 to 6) and ABR testing for hearing function were performed at predosing; and on Days 1, 7, and/or 14. Animals in the toxicology groups (Groups 1 to 6) were sacrificed on Day 1 (10 males and 10 females per group) and Day 14 (the remaining 10 males and 10 females per group). At necropsy, terminal blood samples were tested for hematology, serum chemistry, and coagulation parameters. Gross observations were recorded, and selected organs were weighed. One ear per animal in Groups 1 to 5 was collected and processed for cytocochleogram assessment.

COc1ccc2[nH]cc(CCNC(=O)CC3C(=O)N(CCc4ccc(Cl)cc4Cl)CC(=O)N3CCc3cccs3)c2c1 (stereo not shown) [LPT99, 2-(4-(2,4-dichlorophenethyl)-3,6-dioxo-1-(2-(thiophen-2-yl)ethyl)piperazin-2-yl)-N-(2-(5-methoxy-1H-indol-3-yl)ethyl)acetamide]
inhibition of caspase 3 (caspase 3): 7.6±14.7 | release of mitochondrial cyt c (HEI-OC1 cells; HEI-OC1 cells, after CisPt alone or pre-incubated with LPT99): 68.1% ±1.0% | release of cyt c from mitochondria (HEI-OC1 cells; cellular model of CisPt-induced apoptosis): decreased release of cyt c from mitochondria | effect on proliferation of non-apoptotic cells (A549 cells): delayed cellular proliferation by accumulation of cells at the G1 phase of the cell cycle | in vitro inhibition for 41 of the tested targets [1]: < 50% | ABR Threshold shift after noise exposure [2]: back at basal levels | plasma concentration of 3.2 nM as fraction of administered dose ([3]; 50 μM dose): 0.006% | plasma concentration of 3.2 nM as fraction of administered dose ([3]; 100 μM dose): 0.003% | plasma concentration of 3.2 nM as fraction of administered dose ([3]; 200 μM dose): 0.0016% | plasma level after TT administration (not detectable; detection limit) ([3]; TT administration): < 3.2 nM | Plasma LPT99 concentrations (BLLQ) ([3]; female Wistar rats, 1 hour and 2, 4, 7, 15 days after single 50 μL TT dose of 50, 100, or 200 μM LPT99-CD): < 2 ng/mL | safety margin (hERG IC50 vs plasma detection limit) (hERG): > 1063 | food consumption ([4]; 750 mg/kg, males days 1-7, females days 1-4, vs control): statistically significant reduction in the food consumption | tolerability ([4]; single IP 100, 300, 750 mg/kg): generally safe and well tolerated | exposure in females vs males [5]: 1.5-5.5 fold | number of metabolites formed through phase I biotransformation [6]: ≤ 9 | metabolized after 1 hour ([6]; microsomal and S9 hepatic fractions, all tested species): > 90% | hair cell loss (cytocochleogram) [7]: no reliable evidence of test-article-related hair cell loss | otoscopic scores (erythema, edema, wounds) of tympanic membranes [7]: no statistically significant changes
